Measurements reported in the NIST ThermoML archive (doi:10.1016/j.jct.2015.12.027).
± gives the expanded uncertainty stated by the source.

Columns and labels:
[1] = refractive index (Na D-line) (dimensionless); xn = mol fraction of the nth substance listed; conditions: 81.5 kPa, Liquid, Standard Abbe refractometry
[2] = xn = mol fraction of the nth substance listed; conditions: 81.5 kPa, Liquid, Vibrating tube method

O=[N+]([O-])c1ccccc1 [nitrobenzene] + ClCCCl
Conditions	mass density, 293.15 K [kg/m3]	mass density, 303.15 K [kg/m3]	mass density, 313.15 K [kg/m3]	mass density, 323.15 K [kg/m3]	mass density, 333.15 K [kg/m3]	refractive index, 293.15 K	refractive index, 303.15 K	refractive index, 313.15 K	refractive index, 323.15 K	refractive index, 333.15 K
[1], x2 = 0	–	–	–	–	–	1.55241 ± 0.01	1.54763 ± 0.01	1.54288 ± 0.01	1.53795 ± 0.01	1.53289 ± 0.01
[1], x2 = 0.1008	–	–	–	–	–	1.54317 ± 0.01	1.53879 ± 0.01	1.53437 ± 0.01	1.52975 ± 0.01	1.52496 ± 0.01
[1], x2 = 0.1993	–	–	–	–	–	1.5343 ± 0.01	1.53004 ± 0.01	1.52579 ± 0.01	1.5214 ± 0.01	1.5169 ± 0.01
[1], x2 = 0.3	–	–	–	–	–	1.5252 ± 0.01	1.52093 ± 0.01	1.51672 ± 0.01	1.51243 ± 0.01	1.5081 ± 0.01
[1], x2 = 0.3997	–	–	–	–	–	1.51592 ± 0.01	1.51157 ± 0.01	1.5073 ± 0.01	1.50299 ± 0.01	1.49867 ± 0.01
[1], x2 = 0.4991	–	–	–	–	–	1.5061 ± 0.01	1.50165 ± 0.01	1.49727 ± 0.01	1.49286 ± 0.01	1.48847 ± 0.01
[1], x2 = 0.6004	–	–	–	–	–	1.49525 ± 0.01	1.49071 ± 0.01	1.48623 ± 0.01	1.48171 ± 0.01	1.4772 ± 0.01
[1], x2 = 0.7006	–	–	–	–	–	1.48353 ± 0.01	1.47893 ± 0.01	1.47436 ± 0.01	1.46977 ± 0.01	1.46518 ± 0.01
[1], x2 = 0.801	–	–	–	–	–	1.47088 ± 0.01	1.46619 ± 0.01	1.46154 ± 0.01	1.45687 ± 0.01	1.45224 ± 0.01
[1], x2 = 0.8997	–	–	–	–	–	1.45787 ± 0.01	1.453 ± 0.01	1.44817 ± 0.01	1.44337 ± 0.01	1.43861 ± 0.01
[2], x2 = 0	1203.05 ± 10	1193.15 ± 10	1183.21 ± 10	1173.27 ± 10	1163.32 ± 10	–	–	–	–	–
[2], x2 = 0.1008	1206.99 ± 10	1196.83 ± 10	1186.61 ± 10	1176.36 ± 10	1166.07 ± 10	–	–	–	–	–
[2], x2 = 0.1993	1211.04 ± 10	1200.58 ± 10	1190.03 ± 10	1179.45 ± 10	1168.82 ± 10	–	–	–	–	–
[2], x2 = 0.3	1215.35 ± 10	1204.56 ± 10	1193.66 ± 10	1182.68 ± 10	1171.66 ± 10	–	–	–	–	–
[2], x2 = 0.3997	1219.84 ± 10	1208.67 ± 10	1197.36 ± 10	1185.98 ± 10	1174.52 ± 10	–	–	–	–	–
[2], x2 = 0.4991	1224.55 ± 10	1212.96 ± 10	1201.23 ± 10	1189.39 ± 10	1177.48 ± 10	–	–	–	–	–
[2], x2 = 0.6004	1229.62 ± 10	1217.53 ± 10	1205.32 ± 10	1193 ± 10	1180.62 ± 10	–	–	–	–	–
[2], x2 = 0.7006	1234.94 ± 10	1222.31 ± 10	1209.57 ± 10	1196.72 ± 10	1183.82 ± 10	–	–	–	–	–
[2], x2 = 0.801	1240.51 ± 10	1227.39 ± 10	1214.06 ± 10	1200.58 ± 10	1187.03 ± 10	–	–	–	–	–
[2], x2 = 0.8997	1246.65 ± 10	1232.66 ± 10	1218.68 ± 10	1204.5 ± 10	1190.22 ± 10	–	–	–	–	–

ClCCCl [1,2-dichloroethane] + c1ccccc1
Conditions	mass density, 293.15 K [kg/m3]	mass density, 303.15 K [kg/m3]	mass density, 313.15 K [kg/m3]	mass density, 323.15 K [kg/m3]	mass density, 333.15 K [kg/m3]	refractive index, 293.15 K	refractive index, 303.15 K	refractive index, 313.15 K	refractive index, 323.15 K	refractive index, 333.15 K
[1], x1 = 0.1002	–	–	–	–	–	1.49506 ± 0.01	1.48919 ± 0.01	1.48273 ± 0.01	1.477 ± 0.01	1.47091 ± 0.01
[1], x1 = 0.207	–	–	–	–	–	1.48849 ± 0.01	1.48273 ± 0.01	1.47644 ± 0.01	1.4708 ± 0.01	1.46486 ± 0.01
[1], x1 = 0.3043	–	–	–	–	–	1.48263 ± 0.01	1.47694 ± 0.01	1.47079 ± 0.01	1.46522 ± 0.01	1.45939 ± 0.01
[1], x1 = 0.4032	–	–	–	–	–	1.47684 ± 0.01	1.47123 ± 0.01	1.46522 ± 0.01	1.45971 ± 0.01	1.45398 ± 0.01
[1], x1 = 0.5005	–	–	–	–	–	1.47135 ± 0.01	1.46581 ± 0.01	1.45994 ± 0.01	1.45449 ± 0.01	1.44884 ± 0.01
[1], x1 = 0.5975	–	–	–	–	–	1.46605 ± 0.01	1.46058 ± 0.01	1.45484 ± 0.01	1.44943 ± 0.01	1.44387 ± 0.01
[1], x1 = 0.7235	–	–	–	–	–	1.45935 ± 0.01	1.45396 ± 0.01	1.44838 ± 0.01	1.44302 ± 0.01	1.43756 ± 0.01
[1], x1 = 0.8005	–	–	–	–	–	1.45531 ± 0.01	1.44995 ± 0.01	1.44445 ± 0.01	1.43912 ± 0.01	1.43372 ± 0.01
[1], x1 = 0.8918	–	–	–	–	–	1.4505 ± 0.01	1.44519 ± 0.01	1.43979 ± 0.01	1.43449 ± 0.01	1.42916 ± 0.01
[1], x1 = 1	–	–	–	–	–	1.44472 ± 0.01	1.43948 ± 0.01	1.43423 ± 0.01	1.42897 ± 0.01	1.42373 ± 0.01
[2], x1 = 0.1002	911.76 ± 10	900.68 ± 10	889.51 ± 10	878.27 ± 10	866.86 ± 10	–	–	–	–	–
[2], x1 = 0.207	947.74 ± 10	936.23 ± 10	924.62 ± 10	912.92 ± 10	901.08 ± 10	–	–	–	–	–
[2], x1 = 0.3043	981.38 ± 10	969.5 ± 10	957.49 ± 10	945.42 ± 10	933.17 ± 10	–	–	–	–	–
[2], x1 = 0.4032	1016.56 ± 10	1004.31 ± 10	991.92 ± 10	979.41 ± 10	966.77 ± 10	–	–	–	–	–
[2], x1 = 0.5005	1052.14 ± 10	1039.52 ± 10	1026.72 ± 10	1013.82 ± 10	1000.75 ± 10	–	–	–	–	–
[2], x1 = 0.5975	1088.72 ± 10	1075.72 ± 10	1062.52 ± 10	1049.18 ± 10	1035.66 ± 10	–	–	–	–	–
[2], x1 = 0.7235	1137.85 ± 10	1124.32 ± 10	1110.59 ± 10	1096.67 ± 10	1082.64 ± 10	–	–	–	–	–
[2], x1 = 0.8005	1168.91 ± 10	1155.04 ± 10	1140.95 ± 10	1126.76 ± 10	1112.37 ± 10	–	–	–	–	–
[2], x1 = 0.8918	1206.83 ± 10	1192.59 ± 10	1178.02 ± 10	1163.49 ± 10	1148.78 ± 10	–	–	–	–	–
[2], x1 = 1	1252.82 ± 10	1238.27 ± 10	1223.53 ± 10	1208.61 ± 10	1193.61 ± 10	–	–	–	–	–
